From patent US11572366B2, “Heterocyclic compounds as immunomodulators” (Incyte Corporation, priority 2015, dated 2023)

What follows are molecules tested against PD-1/PD-L1 protein/protein interaction (Homo sapiens (Human), UniProt Q9NZQ7) (assay: PD-1/PD-L1 Homogeneous Time-Resolved Fluorescence (HTRF) binding assay). Details: recombinant human PD-L1 (19-238) His-tag 10 nM, human PD-1 (25-167) Fc tag 3 nM, 25° C., PBS pH 7.4.
Description: Example A. PD-1/PD-L Homogeneous Time-Resolved Fluorescence (HTRF) Binding Assay
The assays were conducted in a standard black 384-well polystyrene plate with a final volume of 20 μL. Inhibitors were first serially diluted in DMSO and then added to the plate wells before the addition of other reaction components. The final concentration of DMSO in the assay was 1%. The assays were carried out at 25° C. in the PBS buffer (pH 7.4) with 0.05% Tween-20 and 0.1% BSA. Recombinant human PD-L1 protein (19-238) with a His-tag at the C-terminus was purchased from AcroBiosystems (PD1-H5229). Recombinant human PD-1 protein (25-167) with Fc tag at the C-terminus was also purchased from AcroBiosystems (PD1-H5257). PD-L1 and PD-1 proteins were diluted in the assay buffer and 10 μL was added to the plate well. Plates were centrifuged and proteins were preincubated with inhibitors for 40 minutes. The incubation was followed by the addition of 10 μL of HTRF detection buffer supplemented with Europium cryptate-labeled anti-human IgG (PerkinElmer-AD0212) specific for Fe and anti-His antibody conjugated to SureLight®-Allophycocyanin (APC, PerkinElmer-AD0059H). After centrifugation, the plate was incubated at 25° C. for 60 min. before reading on a PHERAstar FS plate reader (665 nm/620 nm ratio). Final concentrations in the assay were—3 nM PD1, 10 nM PD-L1, 1 nM europium anti-human IgG and 20 nM anti-His-Allophycocyanin.IC50 determination was performed by fitting the curve of percent control activity versus the log of the inhibitor concentration using the GraphPad Prism 5.0 software.

Sequence of PD-1/PD-L1 protein/protein interaction (Q9NZQ7 19-238): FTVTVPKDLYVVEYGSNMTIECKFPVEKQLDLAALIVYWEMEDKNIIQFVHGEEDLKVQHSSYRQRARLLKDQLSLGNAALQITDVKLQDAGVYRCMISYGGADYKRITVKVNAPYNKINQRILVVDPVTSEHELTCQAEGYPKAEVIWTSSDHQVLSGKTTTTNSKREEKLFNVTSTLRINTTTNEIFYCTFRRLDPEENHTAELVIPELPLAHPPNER

Question: With `Cc1c(-c2ccccc2)cccc1-c1cc2ccc(CNCCO)nc2o1` [Example 1, 2-({[2-(2-methylbiphenyl-3-yl)furo[2,3-b]pyridin-6-yl]methyl}amino)ethanol] as the molecule, how does the IC50 read?
Answer: 10 to 100 nM

Question: Which IC50 does the source give for `Cc1c(-c2ccccc2)cccc1-c1cc2ccc(CN3CCCC[C@H]3C(=O)O)nc2o1` [Example 2, (2S)-1-{[2-(2-methylbiphenyl-3-yl)furo[2,3-b]pyridin-6-yl]methyl}piperidine-2-carboxylic Acid] here?
Answer: 100 to 1000 nM

Question: For `Cc1c(-c2ccccc2)cccc1-c1cc2nc(CNCCO)cc(C)c2o1` [Example 3, 2-({[7-methyl-2-(2-methylbiphenyl-3-yl)furo[3,2-b]pyridin-5-yl]methyl}amino)ethanol], which IC50 is on record?
Answer: 10 to 100 nM

Question: How did the IC50 turn out when `Cc1c(-c2ccccc2)cccc1-c1cc2nc(CN3CCCC[C@H]3C(=O)O)cc(C)c2o1` [Example 4, (2S)-1-{[7-methyl-2-(2-methylbiphenyl-3-yl)furo[3,2-b]pyridin-5-yl]methyl}piperidine-2-carboxylic Acid] was run?
Answer: 10 to 100 nM

Question: For `Cc1c(-c2ccccc2)cccc1-c1cc2cc(CNCCO)nc(C)c2o1` [Example 5, 2-({[7-methyl-2-(2-methylbiphenyl-3-yl)furo[2,3-c]pyridin-5-yl]methyl}amino)ethanol], which IC50 is on record?
Answer: 10 to 100 nM

Question: How did the IC50 turn out when `Cc1c(-c2ccccc2)cccc1-c1cc2cc(CN3CCCC[C@H]3C(=O)O)nc(C)c2o1` [Example 6, (2S)-1-{[7-methyl-2-(2-methylbiphenyl-3-yl)furo[2,3-c]pyridin-5-yl]methyl}piperidine-2-carboxylic Acid] was run?
Answer: 10 to 100 nM

Question: `Cc1c(-c2ccccc2)cccc1-c1nc2cc(CN3CCCC[C@H]3C(=O)O)ccc2o1` [Example 7, (2S)-1-{[2-(2-methylbiphenyl-3-yl)-1,3-benzoxazol-5-yl]methyl}piperidine-2-carboxylic Acid] was tested. Which IC50 did it give?
Answer: 10 to 100 nM

Question: How did the IC50 turn out when `Cc1c(-c2ccccc2)cccc1-c1nc2cc(CNCCO)ccc2o1` [Example 8, 2-({[2-(2-methylbiphenyl-3-yl)-1,3-benzoxazol-5-yl]methyl}amino)ethanol] was run?
Answer: ≤ 10 nM

Question: Which IC50 does the source give for `Cc1c(-c2ccccc2)cccc1-c1cc2cc(CN3CCCC[C@H]3C(=O)O)cnc2o1` [Example 9, (2S)-1-{[2-(2-methylbiphenyl-3-yl)furo[2,3-b]pyridin-5-yl]methyl}piperidine-2-carboxylic Acid] here?
Answer: 100 to 1000 nM

Question: Which IC50 does the source give for `Cc1c(-c2ccccc2)cccc1-c1cc2cc(CNCCO)cnc2o1` [Example 10, 2-({[2-(2-methylbiphenyl-3-yl)furo[2,3-b]pyridin-5-yl]methyl}amino)ethanol] here?
Answer: 10 to 100 nM

Question: For `Cc1c(-c2ccccc2)cccc1-c1nc2cc(CN3CCCC[C@H]3C(=O)O)cc(C)c2o1` [Example 11, (2S)-1-{[7-methyl-2-(2-methylbiphenyl-3-yl)-1,3-benzoxazol-5-yl]methyl}piperidine-2-carboxylic Acid], which IC50 is on record?
Answer: ≤ 10 nM

Question: For `Cc1c(-c2ccccc2)cccc1-c1nc2cc(CNCCO)cc(C)c2o1` [Example 12, 2-({[7-methyl-2-(2-methylbiphenyl-3-yl)-1,3-benzoxazol-5-yl]methyl}amino)ethanol], which IC50 is on record?
Answer: ≤ 10 nM

Question: With `Cc1cc(CN2CCCC[C@H]2C(=O)O)cc2nc(-c3cccc(-c4ccccc4)c3C#N)oc12` [Example 13, (2S)-1-{[2-(2-cyanobiphenyl-3-yl)-7-methyl-1,3-benzoxazol-5-yl]methyl}piperidine-2-carboxylic Acid] as the molecule, how does the IC50 read?
Answer: 10 to 100 nM

Question: Which IC50 does the source give for `Cc1cc(CNCCO)cc2nc(-c3cccc(-c4ccccc4)c3C#N)oc12` [Example 14, 3-(5-{[(2-hydroxyethyl)amino]methyl}-7-methyl-1,3-benzoxazol-2-yl)biphenyl-2-carbonitrile] here?
Answer: ≤ 10 nM

Question: For `Cc1c(-c2ccc3c(c2)OCCO3)cccc1-c1nc2cc(CN3CCCC[C@H]3C(=O)O)cc(C)c2o1` [Example 15, (2S)-1-({2-[3-(2,3-dihydro-1,4-benzodioxin-6-yl)-2-methylphenyl]-7-methyl-1,3-benzoxazol-5-yl}methyl)piperidine-2-carboxylic Acid], which IC50 is on record?
Answer: 10 to 100 nM

Question: Which IC50 does the source give for `Cc1c(-c2ccc3c(c2)OCCO3)cccc1-c1nc2cc(CNCCO)cc(C)c2o1` [Example 16, 2-[({2-[3-(2,3-dihydro-1,4-benzodioxin-6-yl)-2-methylphenyl]-7-methyl-1,3-benzoxazol-5-yl}methyl)amino]ethanol] here?
Answer: ≤ 10 nM

Question: With `Cc1cc(CN2CCCC[C@H]2C(=O)O)cc2nc(-c3cccc(-c4ccc5c(c4)OCCO5)c3C#N)oc12` [Example 17, (2S)-1-({2-[2-cyano-3-(2,3-dihydro-1,4-benzodioxin-6-yl)phenyl]-7-methyl-1,3-benzoxazol-5-yl}methyl)piperidine-2-carboxylic Acid] as the molecule, how does the IC50 read?
Answer: 10 to 100 nM

Question: Which IC50 does the source give for `Cc1cc(CNCCO)cc2nc(-c3cccc(-c4ccc5c(c4)OCCO5)c3C#N)oc12` [Example 18, 2-(2,3-dihydro-1,4-benzodioxin-6-yl)-6-(5-{[(2-hydroxyethyl)amino]methyl}-7-methyl-1,3-benzoxazol-2-yl)benzonitrile] here?
Answer: ≤ 10 nM

Question: How did the IC50 turn out when `Cc1c(-c2ccccc2)cccc1-c1nc2cc(CN3CCCC[C@H]3C(=O)O)ccc2s1` [Example 19, (2S)-1-{[2-(2-methylbiphenyl-3-yl)-1,3-benzothiazol-5-yl]methyl}piperidine-2-carboxylic Acid] was run?
Answer: 100 to 1000 nM

Question: `Cc1c(-c2ccccc2)cccc1-c1cc2nc(CN3CCCC[C@H]3C(=O)O)ccc2o1` [Example 20, (2S)-1-{[2-(2-methylbiphenyl-3-yl)furo[3,2-b]pyridin-5-yl]methyl}piperidine-2-carboxylic Acid] was tested. Which IC50 did it give?
Answer: 100 to 1000 nM

Question: Which IC50 does the source give for `Cc1c(-c2ccccc2)cccc1-c1cc2nc(CNCCO)ccc2o1` [Example 21, 2-({[2-(2-methylbiphenyl-3-yl)furo[3,2-b]pyridin-5-yl]methyl}amino)ethanol] here?
Answer: 10 to 100 nM

Question: `Cc1c(-c2ccccc2)cccc1-c1nc2c(C)cc(CN3CCCC[C@H]3C(=O)O)cc2s1` [Example 22, (2S)-1-{[4-methyl-2-(2-methylbiphenyl-3-yl)-1,3-benzothiazol-6-yl]methyl}piperidine-2-carboxylic Acid] was tested. Which IC50 did it give?
Answer: 10 to 100 nM

Question: For `Cc1c(-c2ccccc2)cccc1-c1nc2c(C)cc(CNCCO)cc2s1` [Example 23, 2-({[4-methyl-2-(2-methylbiphenyl-3-yl)-1,3-benzothiazol-6-yl]methyl}amino)ethanol], which IC50 is on record?
Answer: 10 to 100 nM

Question: `Cc1c(-c2ccccc2)cccc1-c1cc2nc(CNCCO)cnc2o1` [Example 24, 2-({[6-(2-methylbiphenyl-3-yl)furo[2,3-b]pyrazin-2-yl]methyl}amino)ethanol] was tested. Which IC50 did it give?
Answer: 10 to 100 nM

Question: For `Cc1c(-c2ccccc2)cccc1-c1cc2nc(CN3CCCC[C@H]3C(=O)O)cnc2o1` [Example 25, (2S)-1-{[6-(2-methylbiphenyl-3-yl)furo[2,3-b]pyrazin-2-yl]methyl}piperidine-2-carboxylic Acid], which IC50 is on record?
Answer: 100 to 1000 nM

Question: With `Cc1c(-c2ccccc2)cccc1-c1nc2cc(CN3CCCC[C@H]3C(=O)O)c(OCC#N)cc2o1` [Example 26, (2S)-1-{[6-(cyanomethoxy)-2-(2-methylbiphenyl-3-yl)-1,3-benzoxazol-5-yl]methyl}piperidine-2-carboxylic Acid] as the molecule, how does the IC50 read?
Answer: ≤ 10 nM

Question: How did the IC50 turn out when `Cc1c(-c2ccccc2)cccc1-c1nc2cc(CNCCO)c(OCC#N)cc2o1` [Example 27, {[5-{[(2-hydroxyethyl)amino]methyl}-2-(2-methylbiphenyl-3-yl)-1,3-benzoxazol-6-yl]oxy}acetonitrile] was run?
Answer: ≤ 10 nM

Question: For `Cc1c(-c2ccccc2)cccc1-c1nc2cc(CN3CCCC[C@H]3C(=O)O)c(OCCCC#N)cc2o1` [Example 28, (2S)-1-{[6-(3-cyanopropoxy)-2-(2-methylbiphenyl-3-yl)-1,3-benzoxazol-5-yl]methyl}piperidine-2-carboxylic Acid], which IC50 is on record?
Answer: ≤ 10 nM

Question: Which IC50 does the source give for `Cc1c(-c2ccccc2)cccc1-c1nc2cc(CNCCO)c(OCc3cccc(C#N)c3)cc2o1` [Example 29, 3-({[5-{[(2-hydroxyethyl)amino]methyl}-2-(2-methylbiphenyl-3-yl)-1,3-benzoxazol-6-yl]oxy}methyl)benzonitrile] here?
Answer: 10 to 100 nM

Question: Which IC50 does the source give for `Cc1c(-c2ccccc2)cccc1-c1nc2cc(CNCCO)c(OCc3ccccn3)cc2o1` [Example 30, 2-({[2-(2-methylbiphenyl-3-yl)-6-(pyridin-2-ylmethoxy)-1,3-benzoxazol-5-yl]methyl}amino)ethanol] here?
Answer: ≤ 10 nM

Question: How did the IC50 turn out when `COc1cc2oc(-c3cccc(-c4ccccc4)c3C)nc2cc1CNCCO` [Example 31, 2-({[6-methoxy-2-(2-methylbiphenyl-3-yl)-1,3-benzoxazol-5-yl]methyl}amino)ethanol] was run?
Answer: ≤ 10 nM

Question: For `Cc1c(-c2ccccc2)cccc1-c1nc2cc(CNCCO)c(OCCN3CCOCC3)cc2o1` [Example 32, 2-({[2-(2-methylbiphenyl-3-yl)-6-(2-morpholin-4-ylethoxy)-1,3-benzoxazol-5-yl]methyl}amino)ethanol], which IC50 is on record?
Answer: ≤ 10 nM

Question: Which IC50 does the source give for `Cc1c(-c2ccccc2)cccc1-c1nc2cc(CNCCO)ncc2o1` [Example 33, 2-({[2-(2-methylbiphenyl-3-yl)[1,3]oxazolo[5,4-c]pyridin-6-yl]methyl}amino)ethanol] here?
Answer: 10 to 100 nM

Question: How did the IC50 turn out when `Cc1c(-c2ccccc2)cccc1-c1nc2cc(CNCCO)c(OCCCC#N)c(C)c2o1` [Example 34, 4-{[5-{[(2-hydroxyethyl)amino]methyl}-7-methyl-2-(2-methylbiphenyl-3-yl)-1,3-benzoxazol-6-yl]oxy}butanenitrile] was run?
Answer: 10 to 100 nM
